Assay [1] deals with E. coli RNA polymerase σ70 holoenzyme (Escherichia coli (strain K12), UniProt P0A8T7+P0A8V2). Briefly: Fluorescence-detected assay of inhibition of Escherichia coli RNA polymerase. To be noted: T4 N25 promoter DNA, RiboGreen fluorescence, read-out: RNAP-inhibitory activity E. coli RNAP IC50. Format: biochemical. On the procedure: (§1) Fluorescence-detected RNA polymerase assays with E. coli RNA polymerase were performed by a modification of the procedure of Kuhlman et al., 2004 [Kuhlman, P., Duff, H. & Galant, A. (2004) A fluorescence-based assay for multisubunit DNA-dependent RNA polymerases. Anal. Biochem. 324, 183-190]. Reaction mixtures contained […]: […] test salt, 75 nM E. coli RNA polymerase σ^70 holoenzyme, 20 nM 384 bp DNA fragment containing the bacteriophage T4 N25 promoter, 100 μM ATP, 100 μM GTP, 100 μM UTP, 100 μM CTP, 50 mM Tris-HCl, pH 8.0, 100 mM KCl, 10 mM MgCl2, 1 mM DTT, 10 μg/ml bovine serum albumin, and 5.5% glycerol. Reaction components other than DNA and NTPs were pre-incubated for 10 min at 37° C. Reactions were carried out by addition of DNA and incubation for 5 min at 37° C., followed by addition of NTPs and incubation for 60 min at 37° C. DNA was removed by addition of 1 μl 5 mM CaCl2 and 2 U DNaseI (Ambion, Inc.), followed by incubation for 90 min at 37° C. RNA was quantified by addition of 100 μI RiboGreen RNA Quantitation Reagent (Invitrogen, Inc.; 1:500 dilution in Tris-HCl, pH 8.0, 1 mM EDTA), followed by incubation for 10 min at 25° C., followed by measurement of fluorescence intensity [excitation wavelength=485 nm and emission wavelength=535 nm; QuantaMaster QM1 spectrofluorometer (PTI, Inc.)]. IC50 is defined as the concentration of inhibitor resulting in 50% inhibition of RNA polymerase activity.

In assay [2] the target is S. aureus RNA polymerase core enzyme + S. aureus σA (Staphylococcus aureus (strain NCTC 8325 / PS 47), UniProt P47768+Q2G0N5). Briefly: Fluorescence-detected assay of inhibition of Staphylococcus aureus RNA polymerase. Format: biochemical. To be noted: T4 N25 promoter DNA, RiboGreen fluorescence, read-out: RNAP-inhibitory activity S. aureus RNAP IC50. On the procedure:
as §1
Fluorescence-detected RNA polymerase assays with S. aureus RNA polymerase were performed as in Example 2.1, using reaction mixtures containing (20 μl): 0-100 nM test salt, 75 nM S. aureus RNA polymerase core enzyme, 300 nM S. aureus σ^A, 20 nM 384 bp DNA fragment containing the bacteriophage T4 N25 promoter, 100 μM ATP, 100 μM GTP, 100 μM UTP, 100 μM CTP, 40 mM Tris-HCl, pH 8.0, 80 mM NaCl, 5 mM MgCl2, 2.5 mM DTT, and 12.7% glycerol. IC50 is defined as the concentration of inhibitor resulting in 50% inhibition of RNA polymerase activity.

Assay [3] concerns Staphylococcus aureus ATCC 12600. Kind of assay: Inhibition of growth of Staphylococcus aureus (spiral gradient endpoint MIC assay). Format: cell-based. Conditions: ATCC12600, Mueller-Hinton II cation-adjusted agar, 16 h at 37° C., read-out: in vitro antibacterial activity S. aureus ATCC12600 MIC. An excerpt: Minimum inhibitory concentrations (MICs for Staphylococcus aureus ATCC 12600 were quantified using spiral gradient endpoint assays, essentially as described [Wallace, A. and Corkill, J. (1989) Application of the spiral plating method to study antimicrobial action. J. Microbiol. Meths. 10, 303-310; Paton, J., Holt, A., and Bywater, M. (1990) Measurement of MICs of antibacterial agents by spiral gradient endpoint compared with conventional dilution methods. Int. I Exp. Clin. Chemother. 3, 31-38; Schalkowsky S. (1994) Measures of susceptibility from a spiral gradient of drug concentrations. Adv. Exp. Med. Biol. 349, 107-120]. Assays employed exponential-gradient plates containing 150 mm×4 mm Mueller-Hinton II cation-adjusted agar and 0.4-100 μg/ml of test salt. Plates were prepared using an Autoplate 4000 spiral plater (Spiral Biotech, Inc.). Saturated overnight cultures were swabbed radially onto plates, and plates were incubated for 16 h at 37° C. For each culture, the streak length was measured using a clear plastic template (Spiral Biotech, Inc.), the test-salt concentration at the streak endpoint was calculated using the program SGE (Spiral Biotech, Inc.), and the MIC was defined as the calculated test-salt concentration at the streak endpoint.

Values after ≈ are worked out from the molar mass of the structure shown.

For `O=C(NCc1ccc(Cl)cc1)c1c(O)cc(O)cc1O` [Compound 0MTK107, N-(4-chlorobenzyl)-2,4,6-trihydroxybenzamide], the half-inhibitory concentration (IC50) (commonly the concentration that gives 50% inhibition) in assay [1] worked out at 400 nM; in assay [2], 2000 nM. In addition, the MIC (in general, the smallest concentration in the dilution series that meets the test's criterion for growth inhibition) in assay [3] was above 40 µg/mL.

`O=C(NCCc1ccc(Cl)cc1)c1c(O)cc(O)cc1O` [Compound 0MTK127, N-(4-chlorophenethyl)-2,4,6-trihydroxybenzamide]: the figures for the IC50 in assay [1] and in assay [2] were 370 nM and 1500 nM, respectively. The MIC in assay [3] was 20 µg/mL (≈ 65 µM).

With `CN(CCc1ccc(Cl)cc1)C(=O)c1c(O)cc(O)cc1O` [Compound 0MTK128, N-(4-chlorophenethyl)-2,4,6-trihydroxy-N-methylbenzamide], the IC50 was 970 nM in assay [1] and above 100000 nM in assay [2]. The MIC in assay [3] is above 20 µg/mL.

Take `CC(C)(CNC(=O)c1c(O)cc(O)cc1O)c1ccc(Cl)cc1` [Compound 0MTK146, N-(2-(4-chlorophenyl)-2-methylpropyl)-2,4,6-trihydroxybenzamide]: the IC50 amounted to 690 nM in assay [1] and 2700 nM in assay [2]. Also, the minimal inhibitory concentration (MIC) in assay [3] stood at 22 µg/mL (≈ 65.5 µM).

`O=C(NCc1ccc(Oc2ccccc2)cc1)c1c(O)cc(O)cc1O` [Compound 0MTK149, 2,4,6-trihydroxy-N-(4-phenoxybenzyl)benzamide]: the IC50 turned out to be 140 nM in assay [1] and 1500 nM in assay [2]. The MIC in assay [3] came to 19 µg/mL (≈ 54.1 µM).

Take `O=C(NCc1ccc(Oc2ccc(F)cc2)cc1)c1c(O)cc(O)cc1O` [Compound 0MTK154, N-(4-(4-fluorophenoxy)benzyl)-2,4,6-trihydroxybenzamide]: the IC50 in assay [1] is 420 nM; in assay [2], 3500 nM. The MIC in assay [3] came out at 15 µg/mL (≈ 40.6 µM).

In the case of `O=C(NCc1ccc(Oc2ccc(F)cc2)cc1C(F)(F)F)c1c(O)cc(O)cc1O` [Compound 0MTK155, N-(4-(4-fluorophenoxy)-2-(trifluoromethyl)benzyl)-2,4,6-trihydroxybenzamide], the IC50 was 790 nM in assay [1] and 8100 nM in assay [2]. For the same compound, the MIC in assay [3] came out at 8.1 µg/mL (≈ 18.5 µM).

For `O=C(NCCc1ccc(Oc2ccc(F)cc2)cc1)c1c(O)cc(O)cc1O` [Compound 0MTK156, N-(4-(4-fluorophenoxy)phenethyl)-2,4,6-trihydroxybenzamide], the IC50 in assay [1] amounted to 820 nM; in assay [2], 5500 nM. In addition, the MIC in assay [3] is 8.3 µg/mL (≈ 21.6 µM).

In the case of `O=C(NCc1ccc(Oc2ccccc2)cc1C(F)(F)F)c1c(O)cc(O)cc1O` [Compound 0MTK158, 2,4,6-trihydroxy-N-(4-phenoxy-2-(trifluoromethyl)benzyl)benzamide], the IC50 is 220 nM in assay [1] and 1800 nM in assay [2]. Moreover, the MIC in assay [3] was determined as 5.4 µg/mL (≈ 12.9 µM).

Take `O=C(NCc1ccc(Oc2ccc(F)cc2)c(Cl)c1)c1c(O)cc(O)cc1O` [Compound 0MTK174, N-(3-chloro-4-(4-fluorophenoxy)benzyl)-2,4,6-trihydroxybenzamide]: the IC50 in assay [1] came to 410 nM; in assay [2], 14000 nM. Besides, the MIC in assay [3] is 8.6 µg/mL (≈ 21.3 µM).

Take `O=C(NCc1ccc(Oc2ccc(F)cc2)c(F)c1)c1c(O)cc(O)cc1O` [Compound 0MTK175, N-(3-fluoro-4-(4-fluorophenoxy)benzyl)-2,4,6-trihydroxybenzamide]: the IC50 was 450 nM in assay [1] and 7000 nM in assay [2]. Also, the MIC in assay [3] is 8.6 µg/mL (≈ 22.2 µM).

With `Cc1cc(Oc2ccc(F)cc2)ccc1CNC(=O)c1c(O)cc(O)cc1O` [Compound 0MTK176, N-(4-(4-fluorophenoxy)-2-methylbenzyl)-2,4,6-trihydroxybenzamide], the IC50 is 390 nM in assay [1] and 12000 nM in assay [2]. For the same compound, in assay [3], the MIC worked out at 5.3 µg/mL (≈ 13.8 µM).

For `COc1cc(Oc2ccc(F)cc2)ccc1CNC(=O)c1c(O)cc(O)cc1O` [Compound 0MTK178, N-(4-(4-fluorophenoxy)-2-methoxybenzyl)-2,4,6-trihydroxybenzamide], the IC50 in assay [1] came to 610 nM; in assay [2] it was 18000 nM. The MIC in assay [3] was determined as 7.8 µg/mL (≈ 19.5 µM).

Regarding `O=C(NCCc1ccc(Oc2cc(Cl)cc(Cl)c2)cc1)c1c(O)cc(O)cc1O` [Compound 0MTK180, N-(4-(3,5-dichlorophenoxy)phenethyl)-2,4,6-trihydroxybenzamide], the IC50 in assay [1] came to 830 nM; in assay [2], 6600 nM. Further, the MIC in assay [3] was 1.8 µg/mL (≈ 4.14 µM).

Turning to `O=C(NCc1ccc(Oc2ccc(F)cc2)cc1Cl)c1c(O)cc(O)cc1O` [Compound 0MTK181, N-(2-chloro-4-(4-fluorophenoxy)benzyl)-2,4,6-trihydroxybenzamide], the IC50 in assay [1] is 1400 nM; in assay [2], above 60000 nM. In addition, in assay [3], the MIC amounted to 6.9 µg/mL (≈ 17.1 µM).

Consider `COc1ccc(Oc2ccc(CCNC(=O)c3c(O)cc(O)cc3O)cc2)cc1` [Compound 0MTK260, 2,4,6-trihydroxy-N-(4-(4-methoxyphenoxy)phenethyl)benzamide], for which the IC50 in assay [1] worked out at 780 nM; in assay [2], 6200 nM.

For `O=C(NCCc1ccc(Oc2ccc(N3CCOCC3)cc2)cc1)c1c(O)cc(O)cc1O` [Compound 0MTK261, 2,4,6-trihydroxy-N-(4-(4-morpholinophenoxy)phenethyl)benzamide], the figures for the IC50 in assay [1] and in assay [2] were 1500 nM and 7500 nM, respectively.

In the case of `O=C(NCCc1ccc(Oc2cncnc2)cc1)c1c(O)cc(O)cc1O` [Compound 0MTK262, 2,4,6-trihydroxy-N-(4-(pyrimidin-5-yloxy)phenethyl)benzamide], the values for the IC50 in assay [1] and in assay [2] were 1500 nM and 7400 nM, respectively.

On to `O=C(NCCc1ccc(Oc2cccc(N3CCOCC3)c2)cc1)c1c(O)cc(O)cc1O` [Compound 0MTK263, 2,4,6-trihydroxy-N-(4-(3-morpholinophenoxy)phenethyl)benzamide], for which the figures for the IC50 in assay [1] and in assay [2] were 1300 nM and 7100 nM, respectively.

`O=C(NCCc1ccc(Oc2cccnc2)cc1)c1c(O)cc(O)cc1O` [Compound 0MTK264, 2,4,6-trihydroxy-N-(4-(pyridin-3-yloxy)phenethyl)benzamide]: the IC50 in assay [1] is 820 nM; in assay [2], 3800 nM.

As to `O=C(NCCc1ccc(Oc2ccncc2)cc1)c1c(O)cc(O)cc1O` [Compound 0MTK265, 2,4,6-trihydroxy-N-(4-(pyridin-4-yloxy)phenethyl)benzamide], the half-maximal inhibitory concentration (IC50) in assay [1] worked out at 1300 nM; in assay [2], 6400 nM.

On to `O=C(NCCc1ccc(Oc2ccc(-c3ccncc3)cc2)cc1)c1c(O)cc(O)cc1O` [Compound 0MTK266, 2,4,6-trihydroxy-N-(4-(4-(pyridin-4-yl)phenoxy)phenethyl)benzamide], for which the IC50 in assay [1] was determined as 1200 nM; in assay [2], 5100 nM.

Consider `O=C(NCCc1ccc(Oc2ccc(-c3cccnc3)cc2)cc1)c1c(O)cc(O)cc1O` [Compound 0MTK267, 2,4,6-trihydroxy-N-(4-(4-(pyridin-3-yl)phenoxy)phenethyl)benzamide], for which the IC50 in assay [1] stood at 300 nM; in assay [2], 1700 nM.

For `O=C(NC1CC1)c1cccc(Oc2ccc(CCNC(=O)c3c(O)cc(O)cc3O)cc2)c1` [Compound 0MTK268, N-(4-(3-(cyclopropylcarbamoyl)phenoxy)phenethyl)-2,4,6-trihydroxybenzamide], the IC50 in assay [1] amounted to 800 nM; in assay [2], 2900 nM.

With `O=C(NCCc1ccc(Oc2cccc(-c3ccncc3)c2)cc1)c1c(O)cc(O)cc1O` [Compound 0MTK269, 2,4,6-trihydroxy-N-(4-(3-(pyridin-4-yl)phenoxy)phenethyl)benzamide], the IC50 in assay [1] is 700 nM; in assay [2], 3000 nM.
